Data set [1] has as its system Staphylococcus aureus. Put plainly: Antibacterial activity against Staphylococcus aureus ATCC 29213 at 128 ug/ml measured after 20 passages by CLSI micro broth dilution method. Type of data set: functional, organism-based. The note with it: dose 128.0 µg/ml.
In data set [2] the test system is Staphylococcus aureus. Put plainly: Antibacterial activity against Staphylococcus aureus ATCC 29213 measured after 18 hrs by CLSI based broth microdilution method. Format: functional. In general terms: Dilution methods test growth across graded concentrations, often in twofold steps.
The subject of data set [3] is Staphylococcus aureus. Put plainly: Antibacterial activity against methicillin-resistant Staphylococcus aureus clinical isolate 17 measured after 18 hrs by CLSI based broth microdilution method. Format: functional.
Data set [4] concerns Staphylococcus aureus. Put plainly: Antibacterial activity against methicillin-resistant Staphylococcus aureus clinical isolate 13 measured after 18 hrs by CLSI based broth microdilution method. Format: functional.
Data set [5] concerns Staphylococcus aureus. Put plainly: Antibacterial activity against methicillin-resistant Staphylococcus aureus clinical isolate 23 measured after 18 hrs by CLSI based broth microdilution method. Format: functional.
The test system of data set [6] is Staphylococcus aureus. In words: Antibacterial activity against methicillin-resistant Staphylococcus aureus clinical isolate 16 measured after 18 hrs by CLSI based broth microdilution method. Format: functional.
For data set [7], the system named is Staphylococcus aureus. Put plainly: Antibacterial activity against methicillin-resistant Staphylococcus aureus clinical isolate 21 measured after 18 hrs by CLSI based broth microdilution method. Format: functional.
The subject of data set [8] is Staphylococcus aureus. Put plainly: Antibacterial activity against methicillin-resistant Staphylococcus aureus clinical isolate 11 measured after 18 hrs by CLSI based broth microdilution method. Type of data set: functional.
In data set [9] the test system is Staphylococcus aureus. In words: Antibacterial activity against methicillin-resistant Staphylococcus aureus clinical isolate 12 measured after 18 hrs by CLSI based broth microdilution method. Format: functional.
The subject of data set [10] is Staphylococcus aureus. Put plainly: Antibacterial activity against methicillin-resistant Staphylococcus aureus clinical isolate 20 measured after 18 hrs by CLSI based broth microdilution method. Format: functional.
For data set [11], the system named is Staphylococcus aureus. Put plainly: Antibacterial activity against methicillin-resistant Staphylococcus aureus clinical isolate 22 measured after 18 hrs by CLSI based broth microdilution method. Format: functional.
Data set [12] concerns Staphylococcus aureus. In words: Antibacterial activity against methicillin-resistant Staphylococcus aureus clinical isolate 14 measured after 18 hrs by CLSI based broth microdilution method. Format: functional.
Data set [13] has as its system Escherichia coli. In words: Antibacterial activity against Escherichia coli ATCC 25922 measured after 18 hrs by CLSI based broth microdilution method. Type of data set: functional.
Data set [14] in a line: Hemolytic activity in sheep erythrocyte assessed as hemolysis incubated for 1 hr by absorbance based analysis. Type of data set: toxicity, cell-based, Ovis aries. The note with it: sheep erythrocytes.
Data set [15] in a line: Selectivity index, ratio of HC50 for hemolytic activity in sheep erythrocyte assessed as hemolysis to MIC for antibacterial activity against Staphylococcus aureus ATCC 29213. Type of data set: toxicity. The note with it: sheep erythrocytes, read-out: Selectivity Index.

Activity calls are given as the source filed them. The rule behind the calls is not given here. Some results are limits rather than exact numbers.

Consider `CCn1cc(C(=O)O)c(=O)c2cc(F)c(N3CCNCC3)cc21`, for which, in data set [1], the outcome was Active.

For `CCCNC(=O)C[N+](C)(C)CCCCOc1ccc2ccc(=O)oc2c1CC=C(C)C.[Br-]`, the MIC (as a rule, the lowest concentration that inhibits growth of the organism) stood at 64 µg/mL in [2]; 64 µg/mL in data set [3]; 64 µg/mL in data set [4]; 64 µg/mL in data set [5]; 32 µg/mL in data set [6]; 64 µg/mL in data set [7]. Besides, the minimal inhibitory concentration (MIC) in data set [8] worked out at 64 µg/mL; in data set [9], 64 µg/mL; in data set [10] it was 64 µg/mL; in data set [11], 64 µg/mL; in data set [12], 32 µg/mL; in data set [13] it was 128 µg/mL. The HC50 (as a rule, the concentration giving 50% haemolysis) at 1 h in [14] was more than 1280 µg/mL. Further, the selectivity ratio in data set [15] is more than 20.

As to `CCCCNC(=O)C[N+](C)(C)CCCOc1ccc2ccc(=O)oc2c1CC=C(C)C.[Br-]`, the minimal inhibitory concentration (MIC) in data set [2], in data set [3], in [4], in [5], in data set [6] and in [7] was 32 µg/mL throughout. Besides, the MIC is 64 µg/mL in data set [8]; 64 µg/mL in [9]; 64 µg/mL in data set [10]; 32 µg/mL in data set [11]; 32 µg/mL in data set [12]; 128 µg/mL in data set [13]. The HC50 at 1 h in [14] was more than 1280 µg/mL. The selectivity ratio in data set [15] was more than 40.

On to `CC(C)=CCc1c(OCCCCC[N+](C)(C)CC(=O)N(C(C)C)C(C)C)ccc2ccc(=O)oc12.[Br-]`, for which the minimal inhibitory concentration (MIC) in [2] came out at 4 µg/mL; in [3] it was 4 µg/mL; in data set [4], 8 µg/mL; in [5], 4 µg/mL; in data set [6] it was 4 µg/mL; in data set [7], 4 µg/mL. The MIC in [8] is 8 µg/mL; in data set [9], 8 µg/mL; in [10] it was 4 µg/mL; in [11] it was 4 µg/mL; in data set [12] it was 4 µg/mL; in [13] it was more than 128 µg/mL. Further, in data set [14], the HC50 at 1 h is 736 µg/mL. Further, the selectivity ratio in data set [15] amounted to 184.

`CC(C)=CCc1c(OCCC[N+](C)(C)CC(=O)N(CC(C)C)CC(C)C)ccc2ccc(=O)oc12.[Br-]`: the minimum inhibitory concentration (MIC) in [2], in [3], in data set [4], in data set [5], in data set [6] and in data set [7] was 4 µg/mL each time. Besides, the MIC in [8] was 4 µg/mL; in data set [9], 8 µg/mL; in data set [10], 4 µg/mL; in data set [11], 4 µg/mL; in data set [12], 4 µg/mL; in data set [13], 128 µg/mL. Besides, in [14], the concentration for 50% haemolysis (HC50) at 1 h is more than 1280 µg/mL. For the same compound, the selectivity ratio in data set [15] is more than 320.

`CC(C)=CCc1c(OCCCC[N+](C)(C)CC(=O)N(C(C)C)C(C)C)ccc2ccc(=O)oc12.[Br-]`: the MIC was 16 µg/mL in [2]; 16 µg/mL in [3]; 32 µg/mL in data set [4]; 16 µg/mL in [5]; 16 µg/mL in data set [6]; 16 µg/mL in data set [7]. Besides, the MIC in [8] was found to be 16 µg/mL; in data set [9] it was 32 µg/mL; in data set [10] it was 16 µg/mL; in [11], 16 µg/mL; in [12], 16 µg/mL; in data set [13], 128 µg/mL. The HC50 at 1 h in data set [14] worked out at 1270 µg/mL. For the same compound, the selectivity ratio in [15] came out at 79.2.

`CCCN(CCC)C(=O)C[N+](C)(C)CCCCCOc1ccc2ccc(=O)oc2c1CC=C(C)C.[Br-]`: the minimal inhibitory concentration (MIC) in data set [2], in data set [3], in data set [4], in data set [5], in data set [6] and in [7] was 8 µg/mL each time. The MIC in data set [8] came out at 8 µg/mL; in data set [9], 16 µg/mL; in data set [10], 8 µg/mL; in [11] it was 4 µg/mL; in data set [12], 8 µg/mL; in data set [13], 128 µg/mL. Besides, the HC50 at 1 h in data set [14] worked out at 779 µg/mL. Besides, in data set [15], the selectivity ratio was found to be 97.4.

On to `CCCCN(CCCC)C(=O)C[N+](C)(C)CCCCCOc1ccc2ccc(=O)oc2c1CC=C(C)C.[Br-]`, for which the MIC in data set [2] is 1 µg/mL; in data set [3], 1 µg/mL; in [4], 2 µg/mL; in data set [5] it was 1 µg/mL; in [6] it was 1 µg/mL; in data set [7] it was 1 µg/mL. Further, the minimum inhibitory concentration (MIC) in [8] was determined as 1 µg/mL; in data set [9], 2 µg/mL; in data set [10], 1 µg/mL; in data set [11], 1 µg/mL; in [12], 1 µg/mL; in data set [13], 128 µg/mL. For the same compound, the concentration for 50% haemolysis (HC50) at 1 h in data set [14] is 989 µg/mL. Moreover, in [15], the selectivity ratio amounted to 989.

For the compound `CCCCN(CCCC)C(=O)C[N+](C)(C)CCCCOc1ccc2ccc(=O)oc2c1CC=C(C)C.[Br-]`, the minimum inhibitory concentration (MIC) is 2 µg/mL in data set [2]; 4 µg/mL in [3]; 4 µg/mL in data set [4]; 4 µg/mL in [5]; 2 µg/mL in data set [6]; 2 µg/mL in data set [7]. For the same compound, the MIC in data set [8] stood at 4 µg/mL; in [9] it was 8 µg/mL; in data set [10], 2 µg/mL; in [11], 2 µg/mL; in data set [12] it was 4 µg/mL; in data set [13] it was 64 µg/mL. Besides, the HC50 at 1 h in data set [14] was more than 1280 µg/mL. Further, the selectivity ratio in [15] is more than 640.

Regarding `CCN(CC)C(=O)C[N+](C)(C)CCCOc1ccc2ccc(=O)oc2c1CC=C(C)C.[Br-]`, the MIC in data set [2], in data set [3], in [4], in data set [5], in data set [6] and in data set [7] was 128 µg/mL each time. Also, the minimal inhibitory concentration (MIC) in data set [8], in [9], in [10], in data set [11], in data set [12] and in data set [13] was 128 µg/mL in each case. Moreover, the HC50 at 1 h in [14] is more than 1280 µg/mL. Moreover, the selectivity ratio in [15] was more than 10.

Consider `CCCCN(CCCC)C(=O)C[N+](C)(C)CCCOc1ccc2ccc(=O)oc2c1CC=C(C)C.[Br-]`, for which the MIC in [2] was found to be 4 µg/mL; in data set [3] it was 8 µg/mL; in data set [4], 4 µg/mL; in data set [5], 4 µg/mL; in data set [6], 4 µg/mL; in data set [7], 4 µg/mL. Besides, the MIC in [8] is 4 µg/mL; in data set [9], 8 µg/mL; in data set [10] it was 4 µg/mL; in data set [11] it was 4 µg/mL; in [12], 4 µg/mL; in data set [13] it was 128 µg/mL. Further, the concentration for 50% haemolysis (HC50) at 1 h in data set [14] is 1090 µg/mL. Besides, the selectivity ratio in data set [15] came to 272.

For `CCCCCCNC(=O)C[N+](C)(C)CCCCOc1ccc2ccc(=O)oc2c1CC=C(C)C.[Br-]`, the MIC is 4 µg/mL in [2]; 4 µg/mL in data set [3]; 4 µg/mL in [4]; 2 µg/mL in data set [5]; 2 µg/mL in [6]; 4 µg/mL in data set [7]. Besides, the minimal inhibitory concentration (MIC) in data set [8] came to 4 µg/mL; in data set [9] it was 8 µg/mL; in data set [10], 4 µg/mL; in [11], 4 µg/mL; in data set [12], 4 µg/mL; in [13], 64 µg/mL. The HC50 at 1 h in data set [14] was more than 1280 µg/mL. Also, the selectivity ratio in [15] was more than 320.

`CC(C)=CCc1c(OCCCCC[N+](C)(C)CC(=O)N(CC(C)C)CC(C)C)ccc2ccc(=O)oc12.[Br-]`: the MIC in data set [2] came to 2 µg/mL; in [3] it was 1 µg/mL; in data set [4], 2 µg/mL; in [5], 1 µg/mL; in [6], 1 µg/mL; in [7], 1 µg/mL. Further, the minimum inhibitory concentration (MIC) worked out at 1 µg/mL in [8]; 2 µg/mL in data set [9]; 1 µg/mL in data set [10]; 1 µg/mL in data set [11]; 1 µg/mL in [12]; 128 µg/mL in [13]. Also, the HC50 at 1 h in data set [14] turned out to be 960 µg/mL. Moreover, in data set [15], the selectivity ratio stood at 480.

For the compound `CCCCNC(=O)C[N+](C)(C)CCCCOc1ccc2ccc(=O)oc2c1CC=C(C)C.[Br-]`, the MIC in data set [2] was 32 µg/mL; in [3], 16 µg/mL; in [4], 32 µg/mL; in [5] it was 16 µg/mL; in data set [6] it was 16 µg/mL; in data set [7] it was 16 µg/mL. The MIC in data set [8] came out at 16 µg/mL; in data set [9], 32 µg/mL; in data set [10], 16 µg/mL; in [11], 16 µg/mL; in data set [12], 16 µg/mL; in [13] it was 128 µg/mL. Moreover, the concentration for 50% haemolysis (HC50) at 1 h in data set [14] was more than 1280 µg/mL. In [15], the selectivity ratio is more than 40.

(Values after ChEMBL document CHEMBL5500372, “Novel natural osthole-inspired amphiphiles as membrane targeting antibacterials against methicillin-resistant Staphylococcus aureus (MRSA)” (Eur J Med Chem, 2024).)
